Results on 11 molecules are retold here after patent US7067519B2 (priority 2002, dated 2006).

For one experiment, the target named is T1, human orexin-1 receptor (Homo sapiens, UniProt O43613).
T1 construct: expressed in transfected cells; host or cells: CHO cells (G418 selection)
T1 sequence (O43613 1-425): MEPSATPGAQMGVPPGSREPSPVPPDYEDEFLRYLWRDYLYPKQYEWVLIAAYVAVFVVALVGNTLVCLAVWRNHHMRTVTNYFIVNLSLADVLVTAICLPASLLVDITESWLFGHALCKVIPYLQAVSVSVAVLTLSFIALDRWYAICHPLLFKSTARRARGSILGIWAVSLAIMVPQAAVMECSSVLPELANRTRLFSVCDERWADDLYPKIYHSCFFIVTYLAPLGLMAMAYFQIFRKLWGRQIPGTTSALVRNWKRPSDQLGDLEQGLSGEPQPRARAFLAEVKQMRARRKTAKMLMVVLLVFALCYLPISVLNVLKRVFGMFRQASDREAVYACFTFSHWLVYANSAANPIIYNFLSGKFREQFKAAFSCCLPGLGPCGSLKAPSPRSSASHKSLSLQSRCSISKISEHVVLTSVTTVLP
Put plainly: Intracellular calcium measurement (FLIPR), OX1 receptor antagonistic activity. Type of experiment: cell-based. The note with it: CHO cells expressing human orexin-1 receptor, agonist 10 nM human orexin-A, fluo-3 calcium. The procedure:
(§1) Determination of OX1 and OX2 Receptor Antagonistic Activities
(§2) The OX1 and OX2 receptor antagonistic activity of the compounds of formula (I) was determined in accordance with the following experimental method.
(§3) Intracellular Calcium Measurements
(§4) Chinese hamster ovary (CHO) cells expressing the human orexin-1 receptor or the human orexin-2 receptor, were grown in culture medium (Ham F-12 with L-Glutamine) containing 300 μg/ml G418, 100 U/ml penicillin, 100 μg/ml streptomycin and 10% inactivated foetal calf serum (FCS).
(§5) The cells were seeded at 80'000 cells/well into 96-well black clear bottom sterile plates (Costar) which had been precoated with 1% gelatine in Hanks' Balanced Salt Solution (HBSS). All reagents were from Gibco BRL.
(§6) The seeded plates were incubated overnight at 37° C. in 5% CO2.
(§7) Human orexin-A as an agonist was prepared as 1 mM stock solution in methanol:water (1:1), diluted in HBSS containing 0.1% bovine serum albumin (BSA) and 2 mM HEPES for use in the assay at a final concentration of 10 nM.
(§8) Antagonists were prepared as 10 mM stock solution in DMSO, then diluted in 96-well plates, first in DMSO, then in HBSS containing 0.1% bovine serum albumin (BSA) and 2 mM HEPES.
(§9) On the day of the assay, 100 μl of loading medium (HBSS containing 1% FCS, 2 mM HEPES, 5 mM probenecid (Sigma) and 3 μM of the fluorescent calcium indicator fluo-3 AM (1 mM stock solution in DMSO with 10% pluronic acid) (Molecular Probes) was added to each well.
(§10) The 96-well plates were incubated for 60 min at 37° C. in 5% CO2. The loading solution was then aspirated and cells were washed 3 times with 200 μl HBSS containing 2.5 mM probenecid, 0.1% BSA, 2 mM HEPES. 100 μl of that same buffer was left in each well. Within the Fluorescent Imaging Plate Reader (FLIPR, Molecular Devices), antagonists were added to the plate in a volume of 50 μl, incubated for 20 min and finally 100 μl of
(§11) agonist was added. Fluorescence was measured for each well at 1 second intervals, and the height of each fluorescence peak was compared to the height of the fluorescence peak induced by 10 nM orexin-A with buffer in place of antagonist. For each antagonist, IC50 value (the concentration of compound needed to inhibit 50% of the agonistic response) was determined.

Another experiment concerns the target T2, human orexin-2 receptor (Homo sapiens, UniProt O43614).
T2 construct: expressed in transfected cells; host or cells: CHO cells (G418 selection)
T2 sequence (O43614 1-444): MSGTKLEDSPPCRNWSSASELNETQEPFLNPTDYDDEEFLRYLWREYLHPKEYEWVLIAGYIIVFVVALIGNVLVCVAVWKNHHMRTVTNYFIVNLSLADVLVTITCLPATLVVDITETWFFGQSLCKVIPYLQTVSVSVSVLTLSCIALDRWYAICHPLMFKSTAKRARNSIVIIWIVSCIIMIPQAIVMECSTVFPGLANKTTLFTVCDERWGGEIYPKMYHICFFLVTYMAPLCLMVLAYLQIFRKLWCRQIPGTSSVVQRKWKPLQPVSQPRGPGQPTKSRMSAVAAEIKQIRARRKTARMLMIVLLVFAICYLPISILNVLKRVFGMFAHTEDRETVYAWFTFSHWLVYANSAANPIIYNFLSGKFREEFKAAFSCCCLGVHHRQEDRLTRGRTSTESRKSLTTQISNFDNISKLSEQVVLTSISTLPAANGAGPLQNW
Put plainly: Intracellular calcium measurement (FLIPR), OX2 receptor antagonistic activity. The following applies: CHO cells expressing human orexin-2 receptor, agonist 10 nM human orexin-A, fluo-3 calcium. Type of experiment: cell-based. The protocol:
as §1, §2, §3, §4, §5, §6, §7, §8, §9, §10, §11

What is called IC50 is the concentration at which inhibition is half-maximal. As for `CCCc1ccccc1NC(=O)N(C(C)c1ccccc1)C1CCCn2c1nc1cc(F)c(F)cc1c2=O` (stereo not shown) [Example 28, 1-(2,3-Difluoro-11-oxo-6,8,9,11-tetrahydro-7H-pyrido[2,1-b]quinazolin-6-yl)-1-(1-phenyl-ethyl)-3-(2-n-propyl-phenyl)-urea], the figures for the half-inhibitory concentration (IC50) on human orexin-1 receptor and on human orexin-2 receptor were 153 nM and 17 nM, respectively.

In the case of `CC(c1ccccc1)N(C(=O)Nc1ccccc1OC(F)(F)F)C1CCn2c1nc1cc(F)ccc1c2=O` (stereo not shown) [Example 7, 1-(6-Fluoro-9-oxo-1,2,3,9-tetrahydro-pyrrolo[2,1-b]quinazolin-3-yl)-1-(1-phenyl-ethyl)-3-(2-trifluoromethoxy-phenyl)-urea], the IC50 on human orexin-1 receptor is 2400 nM; at human orexin-2 receptor, 27 nM.

Take `CCCc1ccccc1NC(=O)N(C(C)c1ccccc1)C1CCn2c1nc1cccc(Cl)c1c2=O` (stereo not shown) [Example 44, 1-(8-Chloro-9-oxo-1,2,3,9-tetrahydro-pyrrolo[2,1-b]quinazolin-3-yl)-1-(1-phenyl-ethyl)-3-(2-n-propyl-phenyl)-urea]: the 50% inhibitory concentration (IC50) on human orexin-1 receptor turned out to be 67 nM; on human orexin-2 receptor, 27 nM.

Consider `CCOc1ccccc1NC(=O)N(C(C)c1ccccc1)C1CCn2c1nc1ccccc1c2=O` (stereo not shown) [Example 3, 3-(2-Ethoxy-phenyl)-1-(9-oxo-1,2,3,9-tetrahydro-pyrrolo[2,1-b]quinazolin-3-yl)-1-(1-phenyl-ethyl)-urea], for which the half-inhibitory concentration (IC50) at human orexin-1 receptor was found to be 115 nM; on human orexin-2 receptor, 79 nM.

With `CCc1ccccc1NC(=O)N(C(C)c1ccccc1)C1CCCn2c1nc1cc(F)c(F)cc1c2=O` (stereo not shown) [Example 30, 1-(2,3-Difluoro-11-oxo-6,8,9,11-tetrahydro-7H-pyrido[2,1-b]quinazolin-6-yl)-3-(2-ethyl-phenyl)-1-(1-phenyl-ethyl)-urea], the IC50 on human orexin-1 receptor was determined as 261 nM; at human orexin-2 receptor, 16 nM.

With `CCCc1ccccc1NC(=O)N(C(C)c1ccccc1)C1CCCn2c1nc1cc(F)ccc1c2=O` (stereo not shown) [Example 33, 1-(3-Fluoro-11-oxo-6,8,9,11-tetrahydro-7H-pyrido[2,1-b]quinazolin-6-yl)-1-(1-phenyl-ethyl)-3-(2-n-propyl-phenyl)-urea], the concentration for half-maximal inhibition (IC50) is 127 nM at human orexin-1 receptor and 18 nM at human orexin-2 receptor.

For `CC(c1ccccc1)N(C(=O)Nc1ccccc1-c1ccccc1)C1CCn2c1nc1cccc(Cl)c1c2=O` (stereo not shown) [Example 41, 3-Biphenyl-2-yl-1-(8-chloro-9-oxo-1,2,3,9-tetrahydro-pyrrolo[2,1-b]quinazolin-3-yl)-1-(1-phenyl-ethyl)-urea], the IC50 at human orexin-1 receptor was found to be 52 nM; at human orexin-2 receptor, 14 nM.

Take `CCc1ccccc1NC(=O)N(C1CCn2c1nc1cccc(C(F)(F)F)c1c2=O)[C@@H](C)c1ccccc1` (stereo partly drawn) [Example 51, 3-(2-Ethyl-phenyl)-1-(9-oxo-8-trifluoromethyl-1,2,3,9-tetrahydro-pyrrolo[2,1-b]quinazolin-3-yl)-1-((S)-1-phenyl-ethyl)-urea]: the IC50 on human orexin-1 receptor is 28 nM; at human orexin-2 receptor it was 21 nM.

As for `CCCc1ccccc1NC(=O)N(C1CCn2c1nc1cccc(C(F)(F)F)c1c2=O)[C@@H](C)c1ccccc1` (stereo partly drawn) [Example 50, 1-(9-Oxo-8-trifluoromethyl-1,2,3,9-tetrahydro-pyrrolo[2,1-b]quinazolin-3-yl)-1-((S)-1-phenyl-ethyl)-3-(2-n-propyl-phenyl)-urea], the IC50 turned out to be 14 nM on human orexin-1 receptor and 18 nM on human orexin-2 receptor.

For the molecule `C[C@@H](c1ccccc1)N(C(=O)Nc1ccccc1OC(F)(F)F)C1CCn2c1nc1cccc(C(F)(F)F)c1c2=O` (stereo partly drawn) [Example 49, 1-(9-Oxo-8-trifluoromethyl-1,2,3,9-tetrahydro-pyrrolo[2,1-b]quinazolin-3-yl)-1-((S)-1-phenyl-ethyl)-3-(2-trifluoromethoxy-phenyl)-urea], the IC50 on human orexin-1 receptor came to 12 nM; on human orexin-2 receptor, 16 nM.

For `CC(c1ccccc1)N(C(=O)Nc1ccccc1OC(F)(F)F)C1CCn2c1nc1cccc(Cl)c1c2=O` (stereo not shown) [Example 40], the IC50 turned out to be 37 nM on human orexin-1 receptor and 14 nM at human orexin-2 receptor.
